# According to patent US20020031787A1, “Compositions and methods for reducing autoimmunity” (priority 2000, published 2002):
# Where no end group is shown, it is not given here.
# System: NOD mice
# Conditions: mouse, in vivo
substance,measurement,value
"insulin B chain 8-20 amino acid peptide (GSHLVEALYLVCG; ends and bridges not checked; UniProt P01308 32-44, looked up, fragment) [islet cell antigen peptide added to the vaccines]",effect of the vaccines on diabetes when the peptide was added,enhanced
